Read-outs that look alike come from different tables or passages of the source.
How the values were obtained:
cocklebur = experiment: Test C pre-/postemergence herbicide test; format: in vivo, Xanthium strumarium; conditions: for pest or weed control at 250 g/ha: 250 g ai/ha; for pest or weed control at 125 g/ha: 125 g ai/ha
Outline: (§1)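 Visual injury scores run from 0 (no effect) to 100 (complete control), assessed relative to untreated controls 12 to 14 days after treatment in the greenhouse. Chemicals were formulated in a non-phytotoxic solvent mixture with surfactant and applied to soil after planting or to emerged plants at the 1- to 4-leaf stage.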

ducksalad = experiment: Test B flooded paddy test; format: in vivo, Heteranthera limosa; conditions: Heteranthera limosa, 336 h, 1000 g ai/ha, visual rating, scale 0 to 100 (0 no effect, 100 complete control), 13 to 15 days, read-out: Ducksalad plant response rating
Outline: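 Each value is a visual 0–100 response rating taken against controls 13 to 15 days after treatment in the greenhouse. Plants received formulated chemical postemergence at the 1- to 4-leaf stage or, in flooded paddy, at the 2-leaf stage.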

corn [1] = experiment: Test C pre-/postemergence herbicide test; format: in vivo, Zea mays; conditions: for Corn plant response rating (crop injury, 0 = no effect, 100 = complete kill) at 250 g/ha: 250 g ai/ha; for Corn plant response rating (crop injury, 0 = no effect, 100 = complete kill) at 125 g/ha: 125 g ai/ha
Outline: as §1

kochia = experiment: Test C pre-/postemergence herbicide test; format: in vivo, Kochia scoparia; conditions: for pest or weed control at 250 g/ha: 250 g ai/ha, scale 0 to 100, 0 no effect, 100 complete control; for pest or weed control at 125 g/ha: 125 g ai/ha
Outline: as §1

velvetleaf [2] = experiment: Test A pre-/postemergence herbicide test; format: in vivo, Abutilon theophrasti; conditions: Abutilon theophrasti, 240 h; for pest or weed control at 2000 g/ha: 2000 g ai/ha; for pest or weed control at 500 g/ha: 500 g ai/ha
Outline: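 Pre: seeded sandy loam, directed soil spray, compound in non-phytotoxic solvent + surfactant. Post: 1–2-leaf plants (2–10 cm), sprayed to runoff. Greenhouse ~10 d; visual injury vs untreated, 0–100 scale.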

corn [3] = experiment: Test B pre-/postemergence herbicide test; format: in vivo, Zea mays; conditions: Zea mays; for Corn plant response rating (crop injury, 0 = no effect, 100 = complete kill) at 500 g/ha / plant injury at 125 g/ha: post-emergence, scale 0 (no effect) to 100 (complete control); for Corn plant response rating (crop injury, 0 = no effect, 100 = complete kill) at 500 g/ha: Postemergence, visual rating after 13 to 15 days; for Corn plant response rating (crop injury, 0 = no effect, 100 = complete kill) at 500 g/ha / plant injury at 500 g/ha: 500 g ai/ha; for plant injury at 125 g/ha: postemergence, visual rating; for plant injury at 125 g/ha / Corn plant response rating (crop injury, 0 = no effect, 100 = complete kill) at 125 g/ha: 125 g ai/ha; for plant injury at 125 g/ha / plant injury at 500 g/ha: read-out: Corn plant response rating; for plant injury at 500 g/ha / Corn plant response rating (crop injury, 0 = no effect, 100 = complete kill) at 125 g/ha: pre-emergence; for plant injury at 500 g/ha: Preemergence, scale 0 to 100; for Corn plant response rating (crop injury, 0 = no effect, 100 = complete kill) at 125 g/ha: preemergence, 0 to 100 scale, 0 is no effect, 100 is complete control
Outline: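 Formulation: non-phytotoxic solvent mix with surfactant. Timing: preemergence on seed and postemergence on 2–18 cm plants, applied concurrently. Readout after 13–15 d greenhouse: visual 0–100 control rating against controls.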

velvetleaf [4] = experiment: Test C pre-/postemergence herbicide test; format: in vivo, Abutilon theophrasti; conditions: for pest or weed control at 250 g/ha: 250 g ai/ha, scale 0 to 100, 0 no effect, 100 complete control; for pest or weed control at 125 g/ha: 125 g ai/ha; for pest or weed control at 62 g/ha: 62 g ai/ha
Outline: as §1

giant foxtail = experiment: Test C pre-/postemergence herbicide test; format: in vivo, Setaria faberi; conditions: for pest or weed control at 250 g/ha: 250 g ai/ha; for pest or weed control at 125 g/ha: 125 g ai/ha
Outline: as §1

[5] = Xanthium strumarium, post-emergence, 312 h, Postemergence, scale 0 to 100, 0 no effect, 100 complete control, read-out: Plant response rating, Cocklebur
[6] = Xanthium strumarium, post-emergence, 312 h, postemergence, scale 0 to 100, read-out: Plant response rating, Cocklebur
[7] = Xanthium strumarium, post-emergence, 312 h, postemergence, 62 g ai/ha, scale 0 to 100, read-out: Plant response rating, Cocklebur
[8] = Zea mays, post-emergence, 312 h, Postemergence, scale 0 to 100, 0 no effect, 100 complete control
[9] = Zea mays, post-emergence, 312 h, postemergence, scale 0 to 100
[10] = Zea mays, post-emergence, 312 h, postemergence, 62 g ai/ha, scale 0 to 100
[11] = Bassia scoparia, post-emergence, Postemergence, read-out: Plant response rating, Kochia
[12] = Bassia scoparia, post-emergence, postemergence, scale 0 to 100, read-out: Plant response rating, Kochia
[13] = Bassia scoparia, post-emergence, postemergence, 62 g ai/ha, scale 0 to 100, read-out: Plant response rating, Kochia
[14] = post-emergence, Postemergence, 0 to 100 scale, 0 no effect, 100 complete control, read-out: Plant response rating, Velvetleaf
[15] = pre-emergence, Preemergence, visual rating, 0 to 100 scale (0 no effect, 100 complete control), read-out: Velvetleaf plant response rating
[16] = Abutilon theophrasti, post-emergence, Postemergence, read-out: Plant response rating, Velvetleaf
[17] = Abutilon theophrasti, post-emergence, postemergence, scale 0 to 100, read-out: Plant response rating, Velvetleaf
[18] = Setaria faberi, post-emergence, 312 h, Postemergence, scale 0 to 100, 0 no effect, 100 complete control, read-out: Plant response rating, Foxtail, Giant
[19] = Setaria faberi, post-emergence, 312 h, postemergence, scale 0 to 100, read-out: Plant response rating, Foxtail, Giant
[20] = Setaria faberi, post-emergence, 312 h, postemergence, 62 g ai/ha, scale 0 to 100, read-out: Plant response rating, Foxtail, Giant
[21] = Postemergence, 500 g ai/ha, scale 0 to 100

| SMILES | pest or weed control at 250 g/ha (cocklebur; [5]) [%] | pest or weed control at 125 g/ha (cocklebur; [6]) [%] | pest or weed control at 62 g/ha (cocklebur; [7]) [%] | pest or weed control at 1000 g/ha (ducksalad) [%] | Corn plant response rating (crop injury, 0 = no effect, 100 = complete kill) at 250 g/ha (corn [1]; [8]) [%] | Corn plant response rating (crop injury, 0 = no effect, 100 = complete kill) at 125 g/ha (corn [1]; [9]) [%] | Corn plant response rating (crop injury, 0 = no effect, 100 = complete kill) at 62 g/ha (corn [1]; [10]) [%] | pest or weed control at 250 g/ha (kochia; [11]) [%] | pest or weed control at 125 g/ha (kochia; [12]) [%] | pest or weed control at 62 g/ha (kochia; [13]) [%] | pest or weed control at 2000 g/ha (velvetleaf [2]; [14]) [%] | pest or weed control at 500 g/ha (velvetleaf [2]; [15]) [%] | pest or weed control at 2000 g/ha (velvetleaf [2]; [15]) [%] | Corn plant response rating (crop injury, 0 = no effect, 100 = complete kill) at 500 g/ha (corn [3]) [%] | plant injury at 125 g/ha (corn [3]) [%] | plant injury at 500 g/ha (corn [3]) [%] | Corn plant response rating (crop injury, 0 = no effect, 100 = complete kill) at 125 g/ha (corn [3]) [%] | pest or weed control at 250 g/ha (velvetleaf [4]; [16]) [%] | pest or weed control at 125 g/ha (velvetleaf [4]; [17]) [%] | pest or weed control at 62 g/ha (velvetleaf [4]; [17]) [%] | other results |
| --- | --- | --- | --- | --- | --- | --- | --- | --- | --- | --- | --- | --- | --- | --- | --- | --- | --- | --- | --- | --- | --- |
| CCOC(=O)c1cccc(NC(=O)c2cc(C(C)(C)C)nn2CC)c1 [Compound 80, ethyl 3-[[[3-(1,1-dimethylethyl)-1-ethyl-1H-pyrazol-5-yl]carbonyl]-amino]benzoate] | 100 | 90 | 90 | 90 | 70 | 70 | 70 | 100 | 100 | 100 | 75 | 10 | 10 | 50 | 20 | 10 | 0 | 100 | 100 | 100 | Plant response rating (0 = no effect, 100 = complete control), Cocklebur (cocklebur; 62 g ai/ha, preemergence): 0; pest or weed control at 31 g/ha (cocklebur; Xanthium strumarium, post-emergence, 312 h, postemergence, 31 g ai/ha, scale 0 to 100, read-out: Plant response rating, Cocklebur): 70%; pest or weed control at 125 g/ha (cocklebur; Xanthium strumarium, pre-emergence, 312 h, scale 0 (no effect) to 100 (complete control), visual, 12 to 14 days, read-out: Plant response rating, Cocklebur): 10%; pest or weed control at 250 g/ha (cocklebur; Xanthium strumarium, pre-emergence, 312 h, scale 0 to 100 (0 no effect, 100 complete control), visual, 12 to 14 days, read-out: Plant response rating, Cocklebur): 10%; Plant response rating (0 = no effect, 100 = complete control), Corn (corn [1]; 62 g ai/ha, preemergence): 0; Corn plant response rating (crop injury, 0 = no effect, 100 = complete kill) at 31 g/ha (corn [1]; Zea mays, pre-emergence, 312 h, 31 g ai/ha, preemergence, scale 0 to 100): 0%; Corn plant response rating (crop injury, 0 = no effect, 100 = complete kill) at 125 g/ha (corn [1]; Zea mays, pre-emergence, 312 h, scale 0 (no effect) to 100 (complete control), visual, 12 to 14 days): 10%; Corn plant response rating (crop injury, 0 = no effect, 100 = complete kill) at 250 g/ha (corn [1]; Zea mays, pre-emergence, 312 h, scale 0 to 100 (0 no effect, 100 complete control), visual, 12 to 14 days): 20%; Plant response rating (0 = no effect, 100 = complete control), Kochia (kochia; 62 g ai/ha, preemergence): 10; pest or weed control at 31 g/ha (kochia; Bassia scoparia, pre-emergence, 31 g ai/ha, preemergence, scale 0 to 100, read-out: Plant response rating, Kochia): 10%; pest or weed control at 125 g/ha (kochia; Bassia scoparia, pre-emergence, scale 0 (no effect) to 100 (complete control), visual, 12 to 14 days, read-out: Plant response rating, Kochia): 10%; pest or weed control at 31 g/ha (velvetleaf [4]; Abutilon theophrasti, pre-emergence, 31 g ai/ha, preemergence, scale 0 to 100, read-out: Plant response rating, Velvetleaf): 20%; pest or weed control at 125 g/ha (velvetleaf [4]; Abutilon theophrasti, pre-emergence, scale 0 (no effect) to 100 (complete control), visual, 12 to 14 days, read-out: Plant response rating, Velvetleaf): 100%; Plant response rating (0 = no effect, 100 = complete control), Foxtail, Giant (giant foxtail; 62 g ai/ha, preemergence): 10; pest or weed control at 250 g/ha (giant foxtail; [18]): 80%; pest or weed control at 125 g/ha (giant foxtail; [19]): 80%; pest or weed control at 62 g/ha (giant foxtail; [20]): 70%; pest or weed control at 31 g/ha (giant foxtail; Setaria faberi, pre-emergence, 312 h, 31 g ai/ha, preemergence, scale 0 to 100, read-out: Plant response rating, Foxtail, Giant): 10%; pest or weed control at 125 g/ha (giant foxtail; Setaria faberi, pre-emergence, 312 h, scale 0 (no effect) to 100 (complete control), visual, 12 to 14 days, read-out: Plant response rating, Foxtail, Giant): 40%; pest or weed control at 250 g/ha (giant foxtail; Setaria faberi, pre-emergence, 312 h, scale 0 to 100 (0 no effect, 100 complete control), visual, 12 to 14 days, read-out: Plant response rating, Foxtail, Giant): 50% |
| CCn1nc(C(C)(C)C)cc1C(=O)Nc1cccc(C(=O)OCCF)c1 [Compound 82, 2-fluoroethyl 3-[[[3-(1,1-dimethylethyl)-1-ethyl-1H-pyrazol-5-yl]-carbonyl]amino]benzoate] | 5 | 5 | 5 | 20 | 10 | 10 | 10 | 50 | 40 | 10 | 30 | 0 | 0 | 30 | 20 | 0 | 0 | 70 | 10 | 5 | pest or weed control at 500 g/ha (cocklebur; Xanthium strumarium, post-emergence, 312 h, Postemergence, 500 g ai/ha, scale 0 to 100, read-out: Cocklebur plant response rating): 20%; Corn plant response rating (corn [1]; [21]): 45; Kochia plant response rating (kochia; [21]): 70; Velvetleaf plant response rating (velvetleaf [4]; [21]): 75; Foxtail, Giant plant response rating (giant foxtail; [21]): 30; pest or weed control at 250 g/ha (giant foxtail; [18]): 10%; pest or weed control at 125 g/ha (giant foxtail; [19]): 0%; pest or weed control at 62 g/ha (giant foxtail; [20]): 0% |
